From patent US5189169A (priority 1991, dated 1993)
Several values for one entry are separate records, joined by “and”; a condition that tells them apart may be missing. Identical values can stand only once.

Legend:
[1] = test system: three broadleaf weeds: wild mustard, redroot pigweed and curly dock; experiment: Post-emergence herbicidal activity, broadleaf weeds (Table III); format: in vivo, Brassica kaber, Amaranthus retroflexus, Rumex crispus; details: 2.24 kg/ha, 2-3 weeks after treatment
Description: (§1) The herbicidal effect was observed by comparing the extent of weed control in test flats treated with the compounds against that occurring in similar non-treated control flats. All were applied at 3.57 lb/A (4 kg/ha) to pre-emergence and post-emergence screening flats. An 80 gal/A (748.3 1/ha) spray volume was utilized. Post-emergence flats were seeded 12 days prior to treatment. Pre-emergence flats were seeded one day prior to treatment. Overhead watering of pre-emergence flats and soil surface watering of post-emergence flats, so as to avoid wetting the foliage, were carried out for the duration of the test.
(§2) Weed seeds were planted in a flat at a seed depth of 0.5 inch (1.3 cm). Soil for flats was prepared using loam soil fortified with 17-17-17 fertilizer (N-P2 O5 -K2 O on a weight basis) and Captan 80W fungicide. The test weeds were as follows:
(§3) The spray solutions were prepared by dissolving 240 mg of test compound in 20 ml of acetone containing 1% polyoxyethylene sorbitan monolaurate emulsifier, then adding 20 ml of water to the resulting solution. The spray solutions were applied using a linear spray table. Pre-emergence flats are raised to the level of the post-emergence foliage canopy by setting the flats on a wooden block.
(§4) The degree of weed control was visually assessed and recorded as percentage control compared to the growth of the same species in an untreated check flat of the same age. The rating scale ranges from 0 to 100%, where 0 equals no effect with plant growth equal to the untreated control, and 100 equals complete kill.
(§5) Compounds 68 to 145 in Table I were tested generally similarly to Compounds No. 1 to 67 with the following differences: The rate of application was 2 lb/acre (2.24 kg/ha), no 6-day evaluations were made, and the weeds were:
(§6) Three broadleaf weeds: wild mustard, redroot pigweed (Amaranthus retroflexus) and curly dock (Rumex crispus).
(§7) Ratings were taken 2-3 weeks after treatment.

[2] = test system: three broadleaf weeds: wild mustard, redroot pigweed and curly dock; experiment: Pre-emergence herbicidal activity, broadleaf weeds (Table III); format: in vivo, Brassica kaber, Amaranthus retroflexus, Rumex crispus; details: 2.24 kg/ha, 2-3 weeks after treatment
Description: as §1, §2, §3, §4, §5, §6, §7

[3] = test system: four grassy weeds: wild oat, watergrass, green foxtail and crabgrass; experiment: Pre-emergence herbicidal activity, grassy weeds (Table III); format: in vivo; details: 2.24 kg/ha, 2-3 weeks after treatment
Description: as §1, §2, §3, §4, §5
(§8) Four grassy weeds: wild oat, watergrass, green foxtail and crabgrass (Digitaria sanguinalis);
as §7

[4] = test system: four grassy weeds: wild oat, watergrass, green foxtail and crabgrass; experiment: Post-emergence herbicidal activity, grassy weeds (Table III); format: in vivo; details: 2.24 kg/ha, 2-3 weeks after treatment
Description: as §1, §2, §3, §4, §5, §8, §7

yellow nutsedge [5] = test system: yellow nutsedge; design: species or system Cyperus esculentus; details: in vivo
[6] = test system: three grassy weeds (wild oat, watergrass, foxtail); design: species or system Avena fatua, Echinochloa crusgalli, Setaria viridis; details: in vivo
[7] = test system: three broadleaf weeds (morning glory, mustard, velvetleaf); design: species or system Ipomoea purpurea, Brassica kaber, Abutilon theophrasti; details: in vivo
yellow nutsedge [8] = test system: yellow nutsedge; design: species or system Cyperus esculentus; details: in vivo; remark: listed apart in the source
[9] = test system: three broadleaf weeds (morning glory, mustard, velvetleaf); design: species or system Ipomoea purpurea, Brassica kaber, Abutilon theophrasti; details: in vivo; remark: listed apart in the source

| SMILES | % Control, Post-Emergence, BL Avg. [1] [%] | % Control, Pre-Emergence, BL Avg. [2] [%] | % Control, Pre-Emergence, GR Avg. [3] [%] | % Control, Post-Emergence, GR Avg. [4] [%] | % Control, Pre-emergence, NS (yellow nutsedge [5]) [%] | % Control, Pre-emergence, GR avg. [6] [%] | % Control, Pre-emergence, BL avg. [7] [%] | % Control, Post-emergence, NS (yellow nutsedge [8]) | % Control, Post-emergence, BL avg. [9] |
| --- | --- | --- | --- | --- | --- | --- | --- | --- | --- |
| CCCN(CCC)P(=O)(SCC)N1CC(CC)CCC1C (centres unmarked) [Compound 96] | 67 | 10 | 0 | 65 |  |  |  |  |  |
| CCCCN(CCCC)P(=O)(SCCC)N(C)C (centres unmarked) [Compound 108] | 98 | 13 | 15 | 76 |  |  |  |  |  |
| C=CCSP(=O)(N(CCC)CCC)N(CCCC)CCCC (centres unmarked) [Compound 129] | 86 | 0 | 0 | 69 |  |  |  |  |  |
| CCCN(CCC)P(=O)(SCc1ccccc1)N(CCC)CCC [Compound 95] | 80 | 13 | 5 | 55 |  |  |  |  |  |
| CCCCN(CCCC)P(=O)(SC(C)CC)N(CCC)CCC (centres unmarked) [Compound 127] | 99 | 0 | 0 | 59 |  |  |  |  |  |
| CCCCN(CCCC)P(=O)(SC(C)C)N(CC)CC (centres unmarked) [Compound 87] | 99 | 12 | 5 | 62 |  |  |  |  |  |
| CCCN(CCC)P(=O)(SC1CCCCC1)N(CCC)CCC [Compound 118] | 63 | 0 | 0 | 30 |  |  |  |  |  |
| CCCN(CCC)P(=O)(SC(C)(C)CC)N(CCC)CCC [Compound 81] | 83 | 0 | 0 | 66 |  |  |  |  |  |
| CCCCSP(=O)(N(CC)CCCC)N(CCC)CCC (centres unmarked) [Compound 90] | 100 | 7 | 0 | 86 |  |  |  |  |  |
| CCCCCSP(=O)(N(CCC)CCC)N(CCC)CCC [Compound 131] | 93 | 23 | 0 | 58 |  |  |  |  |  |
| CCCCCCSP(=O)(N(CC)CCCC)N(CCC)CCC (centres unmarked) [Compound 135] | 96 | 10 | 0 | 54 |  |  |  |  |  |
| CCCCN(CCCC)P(=O)(SCC)N(CCCC)CCCC [Compound 82] | 99 | 0 | 0 | 75 |  |  |  |  |  |
| CCCCCSP(=O)(N(CCC)CCC)N(CCCC)CCCC (centres unmarked) [Compound 130] | 97 | 16 | 0 | 59 |  |  |  |  |  |
| CCCCSP(=O)(N(CC)CC)N(CCCC)CCCC (centres unmarked) [Compound 86] | 99 | 7 | 5 | 77 |  |  |  |  |  |
| CCCN(CCC)P(=O)(SC(C)C)N(CCC)CCC [Compound 79] | 99 | 50 | 35 | 85 |  |  |  |  |  |
| CCCCN(CC)P(=O)(SC(C)CC)N(CCC)CCC (centres unmarked) [Compound 114] | 93 | 0 | 0 | 56 |  |  |  |  |  |

| SMILES | % Control, Post-Emergence, BL Avg. [1] [%] | % Control, Pre-Emergence, BL Avg. [2] [%] | % Control, Pre-Emergence, GR Avg. [3] [%] | % Control, Post-Emergence, GR Avg. [4] [%] | % Control, Pre-emergence, NS (yellow nutsedge [5]) [%] | % Control, Pre-emergence, GR avg. [6] [%] | % Control, Pre-emergence, BL avg. [7] [%] | % Control, Post-emergence, NS (yellow nutsedge [8]) | % Control, Post-emergence, BL avg. [9] |
| --- | --- | --- | --- | --- | --- | --- | --- | --- | --- |
| CCCCN(CC)P(=O)(SCC)N(CCC)CCC (centres unmarked) [Compound 88] | 96 | 0 | 0 | 89 |  |  |  |  |  |
| CCCN(CCC)P(=O)(SCC)N(C)c1ccccc1 (centres unmarked) [Compound 119] | 67 | 0 | 0 | 30 |  |  |  |  |  |
| CCCCN(CCCC)P(=O)(SC(C)CC)N(C)C (centres unmarked) [Compound 111] | 99 | 10 | 10 | 72 |  |  |  |  |  |
| CCCCN(CCCC)P(=O)(SCCC)N(CCC)CCC (centres unmarked) [Compound 124] | 79 | 0 | 0 | 67 |  |  |  |  |  |
| CCCSP(=O)(N(CC)CC)N(CCC)CCC (centres unmarked) [Compound 145] | 87 | 30 | 0 | 60 |  |  |  |  |  |
| CCCCN(CCCC)P(=O)(SCCC)N(CC)CC (centres unmarked) [Compound 85] | 99 | 10 | 12 | 89 |  |  |  |  |  |
| CCCCSP(=O)(N(CC)CC)N(CC)CC [Compound 69] | 87 | 0 | 13 | 30 |  |  |  |  |  |
| CCCSP(=O)(N(CCC)CCC)N(CCC)CCC [Compound 71] | 99 | 57 | 27 | 64 |  |  |  |  |  |
| CCCN(CCC)P(=O)(SC(C)CC)N(CCC)CCC (centres unmarked) [Compound 80] | 100 | 53 | 25 | 80 |  |  |  |  |  |
| CCCCCSP(=O)(N(CC)CCCC)N(CCC)CCC (centres unmarked) [Compound 133] | 97 | 10 | 0 | 59 |  |  |  |  |  |
| CCCCN(CCCC)P(=O)(SC1CCCCC1)N(C)C (centres unmarked) [Compound 117] | 77 | 0 | 0 | 50 |  |  |  |  |  |
| CCCCN(CCCC)P(=O)(SC(C)C)N(CCC)CCC (centres unmarked) [Compound 125] | 70 | 0 | 0 | 59 |  |  |  |  |  |
| CCCCN(CC)P(=O)(SCCC)N(CCC)CCC (centres unmarked) [Compound 89] | 100 | 7 | 0 | 90 |  |  |  |  |  |
| CCCSP(=O)(N(CCC)CCC)N(C)c1ccc(OC(F)(F)F)c(Cl)c1 (centres unmarked) [Compound 66] |  |  |  |  | 0 | 0 | 10 | 0% and 5% | 90% and 98% |
| CCCSP(=O)(N(CCC)CCC)N(C)c1cc(Cl)ccc1Cl (centres unmarked) [Compound 34] |  |  |  |  | 0 | 0 | 0 | 0% | 80% and 93% |
| CCCCN(CCCC)P(=O)(SCCC)N(C)c1ccc(Cl)cc1OC (centres unmarked) [Compound 18] |  |  |  |  | 0 | 0 | 0 | 0% | 30% and 60% |
